From patent publication US20260216352A1, “DIRECTED BIOSYNTHESIS OF MODIFIED ANTHRAQUINONE-FUSED ENEDIYNES AS POTENTIAL CANCER THERAPEUTICS” (The Johns Hopkins University, priority 2023, published 2026)

Key:
[1] = format: physicochemical
Description: With the indication that substituents larger than two carbons probably are not tolerated by the mutasynthetic approach, we focused on repurposing the methyl ketone to generate other smaller substituents. […] Removal of the acetyl protecting group in refluxing HCl-ethanol solution provided the 9-amino-5-iodoanthracene-g-thiolactone 45 (Scheme 4). Incorporation of 45 in a Δorf15 fermentation was again successful, as hoped, producing deshydroxy amino-DYN analogue 50 as the major product, accompanied by the low production of the desdihydroxy DYN analogue 51 (FIG. 31).

[2] = tested on: cancer cells; conditions: read-out: In vitro IC50; cited from earlier work
[3] = tested on: transplantable cervical carcinoma HeLa, leukemia P388, L-1210 and melanoma B16; conditions: cited from earlier work
[4] = tested on: wild type M. chersina; assay: Small-scale supplementation of wild type M. chersina fermentation and analysis of dynemicin A production; parameters: species or system Micromonospora chersina; conditions: for Restoration of Dyn production: wild type M. chersina, no added NaI / sodium halide in the fermentation medium
Procedure: Samples cut from medium 53 agar were used to inoculate 50 mL liquid medium 53 cultures. The cultures were shaken at 28° C. for seven days. Then, samples from these vegetative cultures were used to inoculate H881 media (10 g/L soluble starch, 5 g/L Pharmamedia, 1 g/L CaCO3, 0.05 g/L CuSO4·5 H2O and 0.0005 g/L NaI) for fermentation. These cultures were then shaken at 28° C. for 7 days.
Samples (5 mL) of fermentations were extracted with 5 mL of ethyl acetate by vortexing the emulsion for one minute and separating the layers by centrifugation at 4000×g. The ethyl acetate layer (4 mL) was isolated and dried by SpeedVac at room temperature. The residue was then resuspended in 200 μL of dimethyl sulfoxide and filtered through 0.2 μm polytetrafluoroethylene filters for analysis on an Agilent 1200 HPLC equipped with a Phenomenex Prodigy ODS3 100 Å, 5 μm, 250×4.6 mm column. Injections were 30 μL and separated with a gradient method increasing from 5% to 95% acetonitrile supplemented with 0.1% formic acid over 40 min, followed by a 10 min hold at 95% acetonitrile before re-equilibration. The method was run at 1 mL/min and monitored at 280, 375, 450 and 570 nm.
Wild type M. chersina mycelial stock […] was plated on med 53, Lam et al., 1995, with 2% agar and grown at 28° C. After 7 d, mycelia from the plate were inoculated into 50 mL med 53 liquid fermentation medium in a 125 mL Erlenmeyer flask and shaken at 250 rpm at 28° C. for another 7 d. This starter culture (2 mL) was inoculated into 50-mL H881 liquid medium, Lam et al., 1995, with or without added NaI (0.5 mg/L) in 250-mL Erlenmeyer flask and shaken at 250 rpm and 28° C. After 24 h, […] of 2-mM stock solutions of 5, 13 and 25 in DMSO (sterile filtered using 0.2-μm PTFE filters) were added to the respective flasks with or without NaI supplementation to provide a final concentration of the added compounds of […]. After shaking at 250 rpm and 28° C. for another 2 d, Diaion® HP-20 (0.50 g, sterilized by autoclave) was added to each flask and shaking was continued for another 4 d. After a total 7 d of fermentation, 5 mL from each sample was extracted with 5 mL of EtOAc by vortexing for 1 min. Extracts were centrifuged at 4000×g and 4° C. for 5 min, and 4 mL of each EtOAc layer was dried by SpeedVac without heating. Samples were dissolved in 200 μL DMSO, filtered through 0.2 μm PTFE filters and analyzed on an Agilent 1200 HPLC using a Prodigy ODS3 100 Å, […], 250×4.6 mm column (Phenomenex). A gradient method of 5-95% ACN+0.1% (v/v) formic acid over 40 min, followed by 10 min hold at 95% ACN before column re-equilibration was used at a 1 mL/min flow rate to achieve separation of metabolites. Production of dynemicin and other related metabolites was monitored at 280 nm, 450 nm, and 570 nm. […]

Row | Compound | IC50 [2] [nM] | In vivo ID50 [3] [mg/kg] | Restoration of Dyn production [4] | further results
1 | Nc1ccc2cc3c(I)ccc4c3c(c2c1)SC4=O [Compound 45, 9-Amino-5-iodo-2H-anthra[9,1-bc]thiophen-2-one] |  |  |  | Oxidative stability [1]: oxidatively unstable
2 | Neocarzinostatin | 225 to 900 | 0.38 |  | 
3 | Calicheamicins | 6 to 9 | 0.0005 to 0.0015 |  | 
4 | O=C1Sc2c3ccccc3cc3c(Br)ccc1c23 [bromoanthracene 13, 5-Bromo-2H-anthra[9,1-bc]thiophen-2-one] |  |  | not restored | Effect on Dyn production ([4]; wild type M. chersina fermentation medium with added sodium iodide, increasing concentrations of 13): decrease Dyn production
5 | Nc1ccc2c3c(c4ccccc4cc13)SC2=O [aminoanthracene 25, 5-Amino-2H-anthra[9,1-bc]thiophen-2-one] |  |  | failed to rescue Dyn production | 
6 | O=C1Sc2c3ccccc3cc3c(I)ccc1c23 [iodoanthracene 5, 5-Iodo-2H-anthra[9,1-bc]thiophen-2-one] |  |  | fully restored Dyn production | 
